Measurements published in PubChem BioAssay (NCI).
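Tested at 5 concentrations; 48 h exposure; 96-well plates; endpoints linearly interpolated, else capped at highest concentration. GI50 marks 50% less growth. TGI: concentration producing complete growth inhibition.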

Tests used:
Assay in all cases: NCI-60 cell line screen, 48 h
786-0 renal = system: 786-0 renal
A498 renal = system: A498 renal
A549 NSCLC = system: A549 NSCLC
ACHN renal = system: ACHN renal
BT-549 breast = system: BT-549 breast
CAKI-1 renal = system: CAKI-1 renal
CCRF-CEM leukemia = system: CCRF-CEM leukemia
COLO 205 colon = system: COLO 205 colon
DU-145 prostate = system: DU-145 prostate
EKVX NSCLC = system: EKVX NSCLC
HCC-2998 colon = system: HCC-2998 colon
HCT-116 colon = system: HCT-116 colon
HCT-15 colon = system: HCT-15 colon
HL-60(TB) leukemia = system: HL-60(TB) leukemia
HOP-62 NSCLC = system: HOP-62 NSCLC
HOP-92 NSCLC = system: HOP-92 NSCLC
HS 578T breast = system: HS 578T breast
HT29 colon = system: HT29 colon
IGROV1 ovarian = system: IGROV1 ovarian
K-562 leukemia = system: K-562 leukemia
KM12 colon = system: KM12 colon
LOX IMVI melanoma = system: LOX IMVI melanoma
M14 melanoma = system: M14 melanoma
MALME-3M melanoma = system: MALME-3M melanoma
MCF7 breast = system: MCF7 breast
MDA-MB-231 breast = system: MDA-MB-231 breast
MDA-MB-435 = system: MDA-MB-435
MOLT-4 leukemia = system: MOLT-4 leukemia
NCI-H226 lung = system: NCI-H226 lung
NCI-H23 lung = system: NCI-H23 lung
NCI-H460 lung = system: NCI-H460 lung
NCI-H522 lung = system: NCI-H522 lung
NCI/ADR-RES ovarian = system: NCI/ADR-RES ovarian
OVCAR-3 ovarian = system: OVCAR-3 ovarian
OVCAR-4 ovarian = system: OVCAR-4 ovarian
OVCAR-5 ovarian = system: OVCAR-5 ovarian
OVCAR-8 ovarian = system: OVCAR-8 ovarian
PC-3 prostate = system: PC-3 prostate
RPMI-8226 leukemia = system: RPMI-8226 leukemia
RXF 393 renal = system: RXF 393 renal
SF-268 CNS = system: SF-268 CNS
SF-295 CNS = system: SF-295 CNS
SF-539 CNS = system: SF-539 CNS
SK-MEL-2 melanoma = system: SK-MEL-2 melanoma
SK-MEL-28 melanoma = system: SK-MEL-28 melanoma
SK-MEL-5 melanoma = system: SK-MEL-5 melanoma
SK-OV-3 ovarian = system: SK-OV-3 ovarian
SN12C renal = system: SN12C renal
SNB-19 CNS = system: SNB-19 CNS
SNB-75 CNS = system: SNB-75 CNS
SR leukemia = system: SR leukemia
SW-620 colon = system: SW-620 colon
T-47D breast = system: T-47D breast
TK-10 renal = system: TK-10 renal
U251 CNS = system: U251 CNS
UACC-257 melanoma = system: UACC-257 melanoma
UACC-62 melanoma = system: UACC-62 melanoma
UO-31 renal = system: UO-31 renal

## N#CC(=C1C=CC(=NO)C=C1)c1ccccc1
786-0 renal
  GI50: 1.69 µM
  TGI: 9.91 µM
A498 renal
  GI50: 5.33 µM
  TGI: 22.8 µM
A549 NSCLC
  GI50: 4.58 µM
  TGI: > 37.2 µM
ACHN renal
  GI50: 1.14 µM
  TGI: 10.1 µM
BT-549 breast
  GI50: 2.42 µM
  TGI: 11.6 µM
CAKI-1 renal
  GI50: 1.23 µM
  TGI: 11.5 µM
CCRF-CEM leukemia
  GI50: 0.476 µM
  TGI: 2.36 µM
COLO 205 colon
  GI50: 6.33 µM
  TGI: 18.5 µM
DU-145 prostate
  GI50: 1.58 µM
  TGI: 4.05 µM
EKVX NSCLC
  GI50: 5.31 µM
  TGI: 21.4 µM
HCC-2998 colon
  GI50: 4.61 µM
  TGI: 15 µM
HCT-116 colon
  GI50: 0.272 µM
  TGI: 0.794 µM
HCT-15 colon
  GI50: 2.22 µM
  TGI: 12.3 µM
HL-60(TB) leukemia
  GI50: 1.19 µM
  TGI: 4.1 µM
HOP-62 NSCLC
  GI50: 6.31 µM
  TGI: 25.2 µM
HOP-92 NSCLC
  GI50: 2.49 µM
  TGI: 9.46 µM
HS 578T breast
  GI50: 2.39 µM
  TGI: 6.68 µM
HT29 colon
  GI50: 2.16 µM
  TGI: 6.69 µM
IGROV1 ovarian
  GI50: 1.3 µM
  TGI: 4.53 µM
K-562 leukemia
  GI50: 1.85 µM
  TGI: 13.2 µM
KM12 colon
  GI50: 0.355 µM
  TGI: 1.2 µM
LOX IMVI melanoma
  GI50: 1.17 µM
  TGI: 6.25 µM
M14 melanoma
  GI50: 1.74 µM
  TGI: 4.36 µM
MALME-3M melanoma
  GI50: 4.92 µM
  TGI: 19.8 µM
MCF7 breast
  GI50: 0.319 µM
  TGI: 11.6 µM
MDA-MB-231 breast
  GI50: 1.73 µM
  TGI: 5.17 µM
MDA-MB-435
  GI50: 0.331 µM
  TGI: 1.65 µM
MOLT-4 leukemia
  GI50: 3.04 µM
  TGI: 18.4 µM
NCI-H226 lung
  GI50: 2.35 µM
  TGI: 7.47 µM
NCI-H23 lung
  GI50: 9.92 µM
  TGI: 34.1 µM
NCI-H460 lung
  GI50: 1.3 µM
  TGI: 6.11 µM
NCI-H522 lung
  GI50: 1.02 µM
  TGI: 4.68 µM
NCI/ADR-RES ovarian
  GI50: 1.49 µM
  TGI: 11.8 µM
OVCAR-3 ovarian
  GI50: 0.458 µM
  TGI: 4.38 µM
OVCAR-4 ovarian
  GI50: 3.02 µM
  TGI: 15.4 µM
OVCAR-5 ovarian
  GI50: 2.53 µM
  TGI: 5.03 µM
OVCAR-8 ovarian
  GI50: 2.71 µM
  TGI: 12.3 µM
PC-3 prostate
  GI50: 0.671 µM
  TGI: 17 µM
RPMI-8226 leukemia
  GI50: 0.348 µM
  TGI: 1.83 µM
RXF 393 renal
  GI50: 1.14 µM
  TGI: 8.63 µM
SF-268 CNS
  GI50: 1.37 µM
  TGI: 6.06 µM
SF-295 CNS
  GI50: 2.91 µM
  TGI: 8.16 µM
SF-539 CNS
  GI50: 0.92 µM
  TGI: 3.37 µM
SK-MEL-2 melanoma
  GI50: 2.14 µM
  TGI: 6.77 µM
SK-MEL-28 melanoma
  GI50: 8.71 µM
  TGI: 27.5 µM
SK-MEL-5 melanoma
  GI50: 2.01 µM
  TGI: 8.3 µM
SK-OV-3 ovarian
  GI50: 5.75 µM
  TGI: > 65 µM
SN12C renal
  GI50: 2.39 µM
  TGI: 8.41 µM
SNB-19 CNS
  GI50: 3.73 µM
  TGI: 9.35 µM
SNB-75 CNS
  GI50: 2.14 µM
  TGI: 8.99 µM
SR leukemia
  GI50: 0.349 µM
  TGI: 3.73 µM
SW-620 colon
  GI50: 0.473 µM
  TGI: 2.36 µM
T-47D breast
  GI50: 0.47 µM
  TGI: 2.99 µM
TK-10 renal
  GI50: 4.47 µM
  TGI: 13.3 µM
U251 CNS
  GI50: 1.45 µM
  TGI: 8.72 µM
UACC-257 melanoma
  GI50: 2.12 µM
  TGI: 17.8 µM
UACC-62 melanoma
  GI50: 1.49 µM
  TGI: 7.41 µM
UO-31 renal
  GI50: 3.45 µM
  TGI: 19 µM
